# Data: patent US5962525A, “6,7-disubstituted-2-aminotetralines active as immunomodulators and pharmaceutical compositions containing same” (Sigma-Tau, priority 1990, dated 1999)
# Tests used:
# LD50, intravenous = settings: mouse, in vivo, 0.9% saline
# Description: LD50 was determined according to Carrol S. Weil's method, Biometrics, pages 249-263 (1952) in male Swiss albino mice weighing 22-24 g.
# The various compounds dissolved in 0.9% saline were administered intravenously.
# splenocytes = experiment: "In vitro-ex vivo" effect on the mytogen (PHA, ConA, LPS)-induced splenocyte proliferation in mice immunodepressed with cyclophosphamide; set-up: species or system mouse (B6 D2 F1); settings: for S.I. (stimulation index): with respect to the immunodepressed controls; for AUC (area under curve): immunodepressed
# Description: Assessment of the "in vitro-ex vivo" effect of ST 557, ST 563 ST 564 on the mytogen (PHA, ConA, LPS)-Induced splenocyte proliferation in mice Immunodepressed with cyclotohosphamide
# Male B6 D2 F1 mice aged 7-9 weeks (5 mice per group) were used.
# The immunosuppressor (cyclophosphamide) was administered i.p. at the dose of 100 mg/kg at day -5. The compounds were administered i.p. (25 mg/kg/day) and per os (100 mg/kg/day) from day -5 to day -1 (spleen excision at day 0).
# Splenocyte proliferation was induced by three different mytogens: PHA and ConA active on T-lymphocytes, and LPS active on B-lymphocytes. Each mytogen was tested at three different concentrations (suboptimal, optimal and superoptimal) corresponding to 0.5, 4 and 6 mcg/ml/well for PHA; 0.5, 4 and 8 mcg/ml/well for ConA and 0.5, 150 and 500 mcg/ml/well for LPS.
# The experimental procedure is identical to that described in test 4.
# The results are expressed as both AUC (see test 4) and S.I. In order to assess the efficacy of the immunosuppressor and the activity of the tested compounds, S.I. has been determined both for the immunodepressed controls (with respect to the normal controls) and for the immunodepressed treated animals (with respect to the immunodepressed controls), respectively. [formula]
# [1] = tested on: murine peritoneal exudate cells (PEC); experiment: "In vitro-ex vivo" effect on the phagocytic activity of exudate peritoneal cells (SRBC phagocytosis); set-up: species or system mouse (B6 D2 F1); settings: for SRBC per phagocytizing cell: average number of SRBC in each phagocyte
# Description: Assessment of the "in vitro-ex vivo" effect of ST 557, ST 563, ST 564, ST 570, ST 608 and ST 626 on the phagocytic activity of exudate peritoneal cells (PEC)
# Male B6 D2 F1 mice aged 6-8 weeks (5 animals each group) were used.
# The compounds were administered i.p. (25 mg/kg/day), ST 557, ST 563 and ST 626 were also administered per os (100 mg/kg/day) from day -5 to day -1 (PEC harvesting at day 0).
# The experimental procedure was substantially the same as that described by Williams et al., in "Methods in Immunology and Immunochemistry", Acad. Press. 5: 261 (1976).
# In particular, 24 hours following the end of the treatment, PECs from each experimental group were harvested, pooled and their concentration was adjusted to 4×10^6 cells/ml.
# To volumes of 250 μl of each PEC sample were added equal volumes of 0.4% SRBC (Sheep Red Blood Cells) opsonized with hyperimmune serum.
# The samples (duplicate) were incubated for 1 hour and then subjected to hypotonic shock in order to remove the non-phagocytized SRBC. After restoring the osmolarity, the phagocytes were cytocentrifuged, stained with a differential dye and observed under the microscope.
# The results were expressed as:
# (a) percentage of cells that have phagocytized with respect to 100 phagocytizing cells;
# (b) total number of phagocytized SRBC;
# (c) average number of SRBC in each phagocyte.
SMILES,"LD50 (LD50, intravenous)","S.I. (stimulation index) (splenocytes; ConA, 25 mg/kg/day i.p.)","S.I. (stimulation index) (splenocytes; ConA, 100 mg/kg/day os)","AUC (area under curve) (splenocytes; ConA, 25 mg/kg/day i.p.)","AUC (area under curve) (splenocytes; ConA, 100 mg/kg/day os)","S.I. (stimulation index) (splenocytes; LPS, 25 mg/kg/day i.p.)","S.I. (stimulation index) (splenocytes; LPS, 100 mg/kg/day os)","AUC (area under curve) (splenocytes; LPS, 25 mg/kg/day i.p.)","AUC (area under curve) (splenocytes; LPS, 100 mg/kg/day os)","S.I. (stimulation index) (splenocytes; PHA, 25 mg/kg/day i.p.)","AUC (area under curve) (splenocytes; PHA, 25 mg/kg/day i.p.)",Fagocytizing cells ([1]; 25 mg/kg/day i.p.),Total n° SRBC phagocytized ([1]; 25 mg/kg/day i.p.),SRBC per phagocytizing cell ([1]; 25 mg/kg/day i.p.),Fagocytizing cells ([1]; 100 mg/kg/day os),Total n° SRBC phagocytized ([1]; 100 mg/kg/day os),SRBC per phagocytizing cell ([1]; 100 mg/kg/day os)
"COc1cc2c(cc1OC)CC(N(CC1CC1)CC1CC1)CC2 (stereo not drawn) [ST 557, 2-[(N,N-dicyclopropylmethyl)amino]-6,7-dimethoxytetraline]",28.3 mg/kg,1.50,0.92,763 ± 14 ×10^-3,675 ± 21 ×10^-3,5.85,0.97,6411 ± 214 ×10^-3,4485 ± 433 ×10^-3,1.90,191 ± 10 ×10^-3,29.6%,93.6,3.20,59.0%,190.5,3.23
"COc1cc2c(cc1OC)CC(NCC(O)c1ccc(C)cc1)CC2 (stereo not drawn) [ST 563, 2-[(N-2-hydroxy-2-(4-methylphenyl)ethyl)amino]-6,7-dimethoxytetraline]",,1.31,0.84,666 ± 16 ×10^-3,619 ± 12 ×10^-3,4.02,0.41,3715 ± 200 ×10^-3,3501 ± 360 ×10^-3,2.17,217 ± 14 ×10^-3,42.5%,146.0,3.40,58.5%,164.0,2.80
